Laboratory results: article PMC6199744, “Development of Chemical Proteomics for the Folateome and Analysis of the Kinetoplastid Folateome” (ACS Infectious Diseases, 2018)
Where two headings read alike, the source gives them in different places.

What was measured:
Type in all cases: binding
[1] = biological target: T1, HeLa cell extract proteins (Homo sapiens, UniProt P43358); conditions: protein MAGEA4; HeLa
T1 construct: endogenous in cells; host or cells: HeLa cell extract
T1 sequence (P43358 1-317): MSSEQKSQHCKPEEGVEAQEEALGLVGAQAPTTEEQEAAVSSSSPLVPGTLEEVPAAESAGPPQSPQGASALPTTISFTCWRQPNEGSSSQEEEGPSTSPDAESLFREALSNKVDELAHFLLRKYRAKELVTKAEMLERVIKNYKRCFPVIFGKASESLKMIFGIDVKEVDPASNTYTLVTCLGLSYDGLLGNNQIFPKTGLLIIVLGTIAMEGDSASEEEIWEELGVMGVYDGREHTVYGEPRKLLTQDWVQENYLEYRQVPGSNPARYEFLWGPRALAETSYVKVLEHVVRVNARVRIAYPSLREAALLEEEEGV

[2] = biological target: T2, HeLa cell extract proteins (Homo sapiens, UniProt Q5BJD5); conditions: captured protein TMEM41B; HeLa
T2 construct: endogenous in cells; host or cells: HeLa cell extract
T2 sequence (Q5BJD5 1-291): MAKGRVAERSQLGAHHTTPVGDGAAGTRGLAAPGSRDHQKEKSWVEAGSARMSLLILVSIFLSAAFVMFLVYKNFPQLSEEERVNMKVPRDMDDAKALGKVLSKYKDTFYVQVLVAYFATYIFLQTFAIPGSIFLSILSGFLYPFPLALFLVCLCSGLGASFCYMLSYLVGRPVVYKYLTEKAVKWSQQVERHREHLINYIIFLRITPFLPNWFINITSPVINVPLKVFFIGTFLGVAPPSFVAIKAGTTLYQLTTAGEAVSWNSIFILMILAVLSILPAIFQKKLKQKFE

[3] = biological target: T3, HeLa cell extract proteins (Homo sapiens, UniProt P30049)
T3 construct: endogenous in cells; host or cells: HeLa cell extract
T3 sequence (P30049 23-168): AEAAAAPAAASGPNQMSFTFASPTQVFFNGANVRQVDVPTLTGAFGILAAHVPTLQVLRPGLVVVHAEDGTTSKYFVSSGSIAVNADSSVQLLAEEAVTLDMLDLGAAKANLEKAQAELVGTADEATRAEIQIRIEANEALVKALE

[4] = biological target: T4, HeLa cell extract proteins (Homo sapiens, UniProt P12268)
T4 construct: endogenous in cells; host or cells: HeLa cell extract

[5] = biological target: T5, HeLa cell extract proteins (Homo sapiens, UniProt P48163)
T5 construct: endogenous in cells; host or cells: HeLa cell extract
T5 sequence (P48163 1-572): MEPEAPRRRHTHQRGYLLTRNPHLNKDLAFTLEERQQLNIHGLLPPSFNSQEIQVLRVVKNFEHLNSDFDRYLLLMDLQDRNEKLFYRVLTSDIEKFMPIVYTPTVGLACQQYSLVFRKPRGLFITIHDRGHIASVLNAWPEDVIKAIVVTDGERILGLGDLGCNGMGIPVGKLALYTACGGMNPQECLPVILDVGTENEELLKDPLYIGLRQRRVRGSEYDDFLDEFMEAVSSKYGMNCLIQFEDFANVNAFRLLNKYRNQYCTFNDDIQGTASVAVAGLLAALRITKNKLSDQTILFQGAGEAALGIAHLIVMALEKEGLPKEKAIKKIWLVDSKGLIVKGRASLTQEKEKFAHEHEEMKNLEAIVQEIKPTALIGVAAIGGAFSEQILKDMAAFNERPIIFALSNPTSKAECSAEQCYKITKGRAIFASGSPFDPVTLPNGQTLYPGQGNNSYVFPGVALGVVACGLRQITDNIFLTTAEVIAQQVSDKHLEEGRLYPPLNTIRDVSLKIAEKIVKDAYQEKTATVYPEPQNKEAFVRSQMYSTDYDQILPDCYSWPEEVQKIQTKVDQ

[6] = biological target: T6, HeLa cell extract proteins (Homo sapiens, UniProt P52298)
T6 construct: endogenous in cells; host or cells: HeLa cell extract
T6 sequence (P52298 1-156): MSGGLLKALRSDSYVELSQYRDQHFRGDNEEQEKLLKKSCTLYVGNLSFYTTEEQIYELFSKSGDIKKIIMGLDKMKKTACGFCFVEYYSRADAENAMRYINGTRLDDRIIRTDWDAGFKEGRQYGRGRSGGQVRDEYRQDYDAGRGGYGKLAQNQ

[7] = biological target: T7, HeLa cell extract proteins (Homo sapiens, UniProt Q9Y490)
T7 construct: endogenous in cells; host or cells: HeLa cell extract

[8] = biological target: T8, HeLa cell extract proteins (Homo sapiens, UniProt Q93099)
T8 construct: endogenous in cells; host or cells: HeLa cell extract
T8 sequence (Q93099 1-445): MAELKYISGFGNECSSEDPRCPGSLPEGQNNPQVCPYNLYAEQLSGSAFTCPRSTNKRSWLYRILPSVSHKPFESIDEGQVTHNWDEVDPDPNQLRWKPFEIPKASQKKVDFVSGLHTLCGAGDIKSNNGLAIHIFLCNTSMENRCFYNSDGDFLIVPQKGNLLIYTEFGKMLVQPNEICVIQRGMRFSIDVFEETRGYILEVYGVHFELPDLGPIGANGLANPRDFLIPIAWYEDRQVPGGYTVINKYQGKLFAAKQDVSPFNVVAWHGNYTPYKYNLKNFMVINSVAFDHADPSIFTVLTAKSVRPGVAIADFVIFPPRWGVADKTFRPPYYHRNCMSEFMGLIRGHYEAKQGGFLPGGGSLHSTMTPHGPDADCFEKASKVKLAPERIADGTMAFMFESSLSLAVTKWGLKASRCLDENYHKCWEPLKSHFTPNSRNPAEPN

[9] = biological target: T9, HeLa cell extract proteins (Homo sapiens, UniProt Q99805)
T9 construct: endogenous in cells; host or cells: HeLa cell extract

[10] = biological target: T10, HeLa cell extract proteins (Homo sapiens, UniProt P20671)
T10 construct: endogenous in cells; host or cells: HeLa cell extract

[11] = biological target: T11, HeLa cell extract proteins (Homo sapiens, UniProt P19105)
T11 construct: endogenous in cells; host or cells: HeLa cell extract
T11 sequence (P19105 1-171): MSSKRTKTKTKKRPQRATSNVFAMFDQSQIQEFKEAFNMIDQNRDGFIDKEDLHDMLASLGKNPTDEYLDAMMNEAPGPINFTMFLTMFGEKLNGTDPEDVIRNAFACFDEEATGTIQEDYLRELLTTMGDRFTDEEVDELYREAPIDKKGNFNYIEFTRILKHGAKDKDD

[12] = biological target: T12, HeLa cell extract proteins (Homo sapiens, UniProt P51570)
T12 construct: endogenous in cells; host or cells: HeLa cell extract

[13] = biological target: T13, HeLa cell extract proteins (Homo sapiens, UniProt P05109)
T13 construct: endogenous in cells; host or cells: HeLa cell extract
T13 sequence (P05109 1-93): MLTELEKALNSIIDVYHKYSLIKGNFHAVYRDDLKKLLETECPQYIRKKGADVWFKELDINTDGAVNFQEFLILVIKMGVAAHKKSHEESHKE

[14] = biological target: T14, HeLa cell extract proteins (Homo sapiens, UniProt O00231)
T14 construct: endogenous in cells; host or cells: HeLa cell extract

[15] = HeLa, protein NCBP2 (NUCLEAR CAP-BINDING PROTEIN SUBUNIT 2)
[16] = HeLa, protein MRCL3 (MYOSIN REGULATORY LIGHT CHAIN MRCL3 VARIANT)
[17] = HeLa, protein GALK1 (CDNA FLJ56840, HIGHLY SIMILAR TO GALACTOKINASE)

T12 sequence (P51570 whole entry): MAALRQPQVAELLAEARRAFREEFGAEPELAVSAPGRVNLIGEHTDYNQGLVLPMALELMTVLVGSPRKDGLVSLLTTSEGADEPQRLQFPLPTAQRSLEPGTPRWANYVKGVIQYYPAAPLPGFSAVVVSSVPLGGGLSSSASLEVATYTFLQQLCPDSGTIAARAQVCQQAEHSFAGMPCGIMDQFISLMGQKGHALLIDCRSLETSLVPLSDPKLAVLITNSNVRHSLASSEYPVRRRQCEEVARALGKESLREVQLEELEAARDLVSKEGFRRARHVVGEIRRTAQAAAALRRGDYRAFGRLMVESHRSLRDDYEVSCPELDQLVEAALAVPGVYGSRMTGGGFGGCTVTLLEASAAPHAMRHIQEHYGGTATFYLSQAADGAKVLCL
T9 sequence (Q99805 29-663): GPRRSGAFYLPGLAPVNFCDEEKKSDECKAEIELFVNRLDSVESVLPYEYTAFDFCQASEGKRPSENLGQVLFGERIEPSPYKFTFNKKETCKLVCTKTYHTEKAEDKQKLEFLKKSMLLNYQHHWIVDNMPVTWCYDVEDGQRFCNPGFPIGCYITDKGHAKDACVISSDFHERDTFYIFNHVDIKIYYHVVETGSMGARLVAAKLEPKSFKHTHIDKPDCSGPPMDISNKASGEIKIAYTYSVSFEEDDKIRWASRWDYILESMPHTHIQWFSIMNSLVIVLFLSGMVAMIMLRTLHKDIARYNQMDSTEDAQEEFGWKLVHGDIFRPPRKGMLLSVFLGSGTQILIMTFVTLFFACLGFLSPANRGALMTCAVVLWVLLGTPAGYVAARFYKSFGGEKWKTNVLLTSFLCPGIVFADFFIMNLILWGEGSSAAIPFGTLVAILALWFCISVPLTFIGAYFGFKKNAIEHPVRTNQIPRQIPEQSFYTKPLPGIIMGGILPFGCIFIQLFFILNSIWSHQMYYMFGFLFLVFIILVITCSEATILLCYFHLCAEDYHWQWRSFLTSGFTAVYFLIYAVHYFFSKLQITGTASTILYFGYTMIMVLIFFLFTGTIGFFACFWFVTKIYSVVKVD
T7 sequence (Q9Y490 whole entry): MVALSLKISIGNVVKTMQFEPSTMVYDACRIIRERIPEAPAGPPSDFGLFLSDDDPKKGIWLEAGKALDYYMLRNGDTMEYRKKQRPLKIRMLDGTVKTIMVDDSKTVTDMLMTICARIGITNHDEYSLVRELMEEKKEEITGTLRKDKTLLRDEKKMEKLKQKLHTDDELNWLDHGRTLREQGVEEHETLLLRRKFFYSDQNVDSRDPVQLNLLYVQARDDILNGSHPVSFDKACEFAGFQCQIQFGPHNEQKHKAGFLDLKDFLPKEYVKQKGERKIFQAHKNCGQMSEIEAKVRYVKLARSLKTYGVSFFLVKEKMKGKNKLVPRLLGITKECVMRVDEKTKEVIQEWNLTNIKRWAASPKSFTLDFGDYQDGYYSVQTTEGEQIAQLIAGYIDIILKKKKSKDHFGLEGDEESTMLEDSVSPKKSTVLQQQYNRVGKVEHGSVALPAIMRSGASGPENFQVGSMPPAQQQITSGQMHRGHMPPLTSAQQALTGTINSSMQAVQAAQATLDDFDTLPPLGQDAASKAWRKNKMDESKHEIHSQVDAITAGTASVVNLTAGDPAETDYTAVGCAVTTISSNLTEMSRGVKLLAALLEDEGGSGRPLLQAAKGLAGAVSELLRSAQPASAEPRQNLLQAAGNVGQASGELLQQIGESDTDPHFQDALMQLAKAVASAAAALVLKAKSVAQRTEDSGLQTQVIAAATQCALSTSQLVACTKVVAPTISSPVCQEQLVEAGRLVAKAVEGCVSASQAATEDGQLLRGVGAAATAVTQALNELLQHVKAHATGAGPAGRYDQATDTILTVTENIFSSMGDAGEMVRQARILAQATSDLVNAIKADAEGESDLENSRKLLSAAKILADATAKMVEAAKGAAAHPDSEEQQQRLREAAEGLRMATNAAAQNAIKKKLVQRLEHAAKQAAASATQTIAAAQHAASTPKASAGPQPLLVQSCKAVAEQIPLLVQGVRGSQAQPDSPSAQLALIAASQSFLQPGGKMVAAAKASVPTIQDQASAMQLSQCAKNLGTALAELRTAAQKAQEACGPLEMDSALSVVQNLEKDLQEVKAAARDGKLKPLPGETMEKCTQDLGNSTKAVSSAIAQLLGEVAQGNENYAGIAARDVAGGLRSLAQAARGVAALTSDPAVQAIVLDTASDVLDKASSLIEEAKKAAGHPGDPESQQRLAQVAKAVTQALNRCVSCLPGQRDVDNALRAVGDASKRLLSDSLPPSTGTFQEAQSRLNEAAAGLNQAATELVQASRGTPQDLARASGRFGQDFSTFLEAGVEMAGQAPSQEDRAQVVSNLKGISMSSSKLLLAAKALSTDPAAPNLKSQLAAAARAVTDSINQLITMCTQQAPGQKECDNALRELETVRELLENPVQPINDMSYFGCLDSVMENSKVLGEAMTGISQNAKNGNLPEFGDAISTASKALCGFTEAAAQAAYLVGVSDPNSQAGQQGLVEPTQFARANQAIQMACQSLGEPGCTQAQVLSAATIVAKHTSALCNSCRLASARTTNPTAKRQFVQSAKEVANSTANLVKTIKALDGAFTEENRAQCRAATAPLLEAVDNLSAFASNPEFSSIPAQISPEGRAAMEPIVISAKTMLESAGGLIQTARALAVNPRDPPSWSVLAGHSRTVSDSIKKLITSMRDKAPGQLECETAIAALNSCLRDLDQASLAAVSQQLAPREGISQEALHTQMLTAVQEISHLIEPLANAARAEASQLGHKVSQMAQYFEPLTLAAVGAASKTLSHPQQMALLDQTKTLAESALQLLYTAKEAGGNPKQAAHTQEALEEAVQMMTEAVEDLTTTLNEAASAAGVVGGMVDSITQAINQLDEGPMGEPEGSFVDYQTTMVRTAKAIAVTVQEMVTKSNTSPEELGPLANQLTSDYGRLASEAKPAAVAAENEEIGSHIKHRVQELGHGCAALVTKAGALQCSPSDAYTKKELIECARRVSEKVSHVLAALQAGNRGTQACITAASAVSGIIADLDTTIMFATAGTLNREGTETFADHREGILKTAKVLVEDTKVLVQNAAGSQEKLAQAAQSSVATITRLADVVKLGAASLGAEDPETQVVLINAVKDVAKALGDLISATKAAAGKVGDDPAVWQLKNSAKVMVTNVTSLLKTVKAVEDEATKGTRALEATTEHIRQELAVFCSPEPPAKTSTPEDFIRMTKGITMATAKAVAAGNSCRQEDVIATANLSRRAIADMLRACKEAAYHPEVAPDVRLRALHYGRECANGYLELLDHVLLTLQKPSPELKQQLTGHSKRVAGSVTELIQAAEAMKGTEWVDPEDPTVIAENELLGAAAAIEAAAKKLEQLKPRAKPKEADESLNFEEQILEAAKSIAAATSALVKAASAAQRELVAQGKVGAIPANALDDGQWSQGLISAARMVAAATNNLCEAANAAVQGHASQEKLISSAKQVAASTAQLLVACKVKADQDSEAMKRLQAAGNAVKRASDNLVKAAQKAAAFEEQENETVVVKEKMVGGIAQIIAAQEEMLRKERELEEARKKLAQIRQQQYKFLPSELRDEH
T14 sequence (O00231 whole entry): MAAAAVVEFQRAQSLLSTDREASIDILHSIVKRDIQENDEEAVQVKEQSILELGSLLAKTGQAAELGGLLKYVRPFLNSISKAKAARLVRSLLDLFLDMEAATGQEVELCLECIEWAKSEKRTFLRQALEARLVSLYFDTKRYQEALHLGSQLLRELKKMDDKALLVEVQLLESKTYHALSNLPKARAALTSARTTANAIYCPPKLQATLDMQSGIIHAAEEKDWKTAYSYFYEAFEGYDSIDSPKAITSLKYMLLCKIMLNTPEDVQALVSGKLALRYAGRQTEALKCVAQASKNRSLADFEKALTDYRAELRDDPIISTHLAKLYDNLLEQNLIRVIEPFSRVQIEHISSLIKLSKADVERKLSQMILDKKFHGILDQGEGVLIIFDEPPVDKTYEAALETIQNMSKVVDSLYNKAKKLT

## Nc1nc2cccc(-c3ccccc3)c2n1Cc1ccc(Cl)c(Cl)c1 [compound 3]
[1]
  fold changes relative to vehicle control: 0.98
[2]
  fold changes relative to vehicle control: 1.08

## Nc1nc2[nH]cc(CCc3ccc(C(=O)N[C@@H](CCC(=O)O)C(=O)O)cc3)c2c(=O)[nH]1 [PTX, pemetrexed]
[3]
  fold changes relative to vehicle control: 1.14
[4]
  fold changes relative to vehicle control: 0.97
[5]
  fold changes relative to vehicle control: 0.84
[6]
  fold changes relative to vehicle control: 0.91
[7]
  fold changes relative to vehicle control: 1.01
[8]
  fold changes relative to vehicle control: 1.01
[9]
  fold changes relative to vehicle control: 0.76
[10]
  fold changes relative to vehicle control: 1.03
[11]
  fold changes relative to vehicle control: 0.9
[12]
  fold changes relative to vehicle control: 1.27
[13]
  fold changes relative to vehicle control: 0.34
[14]
  fold changes relative to vehicle control: 1.02

## Nc1nc2c(c(=O)[nH]1)N(C=O)C(CNc1ccc(C(=O)N[C@@H](CCC(=O)O)C(=O)O)cc1)CN2 (stereo partly drawn) [LEU, leucovorin]
[3]; protein ATP5D, HeLa
  fold changes relative to vehicle control: 0.85
[4]; HeLa, protein IMPDH2
  fold changes relative to vehicle control: 1.06
[5]; protein ME1, HeLa
  fold changes relative to vehicle control: 0.79
[6]; [15]
  fold changes relative to vehicle control: 1.05
[7]; protein TLN1, HeLa
  fold changes relative to vehicle control: 0.67
[8]; HeLa, protein HGD
  fold changes relative to vehicle control: 0.87
[9]; HeLa, protein TM9SF2
  fold changes relative to vehicle control: 0.74
[10]; HeLa, protein HIST1H2AD
  fold changes relative to vehicle control: 0.96
[11]; [16]
  fold changes relative to vehicle control: 0.8
[12]; [17]
  fold changes relative to vehicle control: 1.18
[13]; protein S100A8, HeLa
  fold changes relative to vehicle control: 0.28
[14]; protein PSMD11, HeLa
  fold changes relative to vehicle control: 1.03

## CCCCCCOc1cccc(Cc2cnc(N)nc2N)c1 [compound 2]
[1]
  fold changes relative to vehicle control: 1.19
[2]
  fold changes relative to vehicle control: 1.09

## NCCOCCOCC(=O)Nc1nc2ncc(CNc3ccc(C(=O)NC(CCC(=O)O)C(=O)O)cc3)nc2c(=O)[nH]1 (stereo not drawn) [compound 6]
[3]; protein ATP5D, HeLa
  fold changes relative to vehicle control: 1.17
[4]; HeLa, protein IMPDH2
  fold changes relative to vehicle control: 1.18
[5]; protein ME1, HeLa
  fold changes relative to vehicle control: 1.02
[6]; [15]
  fold changes relative to vehicle control: 0.91
[7]; protein TLN1, HeLa
  fold changes relative to vehicle control: 0.72
[8]; HeLa, protein HGD
  fold changes relative to vehicle control: 1.01
[9]; HeLa, protein TM9SF2
  fold changes relative to vehicle control: 0.84
[10]; HeLa, protein HIST1H2AD
  fold changes relative to vehicle control: 1.18
[11]; [16]
  fold changes relative to vehicle control: 1.43
[12]; [17]
  fold changes relative to vehicle control: 1.12
[13]; protein S100A8, HeLa
  fold changes relative to vehicle control: 0.4
[14]; protein PSMD11, HeLa
  fold changes relative to vehicle control: 1.11

## CCCCCCOc1ccc(Cc2cnc(N)nc2N)cc1 [compound 1]
[1]
  fold changes relative to vehicle control: 0.95
[2]
  fold changes relative to vehicle control: 1.09

## NCCCNc1ccc(C(=O)NC(CCC(=O)O)C(=O)O)cc1 (stereo not drawn) [compound 7]
[3]; protein ATP5D, HeLa
  fold changes relative to vehicle control: 1.2
[4]; HeLa, protein IMPDH2
  fold changes relative to vehicle control: 1.03
[5]; protein ME1, HeLa
  fold changes relative to vehicle control: 0.86
[6]; [15]
  fold changes relative to vehicle control: 0.95
[7]; protein TLN1, HeLa
  fold changes relative to vehicle control: 0.78
[8]; HeLa, protein HGD
  fold changes relative to vehicle control: 0.8
[9]; HeLa, protein TM9SF2
  fold changes relative to vehicle control: 0.82
[10]; HeLa, protein HIST1H2AD
  fold changes relative to vehicle control: 0.97
[11]; [16]
  fold changes relative to vehicle control: 0.93
[12]; [17]
  fold changes relative to vehicle control: 1.2
[13]; protein S100A8, HeLa
  fold changes relative to vehicle control: 0.26
[14]; protein PSMD11, HeLa
  fold changes relative to vehicle control: 0.9
